Data taken from ChEMBL document CHEMBL1201862, “PubChem BioAssay data set” (2004).
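Results reflect a 48-hour exposure of cells in 96-well plates to compound at five concentrations. At the GI50, growth is halved.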 Calls of active or inactive are those of the source. Rule as the data show it: active = GI50 up to about 1.1 µM and inactive = higher.

Tests used:
Assay in all cases: NCI tumour cell line growth inhibition, 48 h
A498 = test system: A498
A549 = test system: A549
CCRF-CEM = test system: CCRF-CEM
HCC 2998 = test system: HCC 2998
HCT-116 = test system: HCT-116
HOP-92 = test system: HOP-92
Hs-578T = test system: Hs-578T
M14 = test system: M14
MDA-N = test system: MDA-N
NCI-H226 = test system: NCI-H226
NCI-H23 = test system: NCI-H23
NCI-H460 = test system: NCI-H460
OVCAR-3 = test system: OVCAR-3
OVCAR-4 = test system: OVCAR-4
OVCAR-5 = test system: OVCAR-5
SN12C = test system: SN12C
SNB-75 = test system: SNB-75
SW-620 = test system: SW-620
UACC-62 = test system: UACC-62

Row | Structure (SMILES) | GI50 (A498) | GI50 (A549) | GI50 (CCRF-CEM) | GI50 (HCC 2998) | GI50 (HCT-116) | GI50 (HOP-92) | GI50 (Hs-578T) | GI50 (M14) | GI50 (MDA-N) | GI50 (NCI-H226) | GI50 (NCI-H23) | GI50 (NCI-H460) | GI50 (OVCAR-3) | GI50 (OVCAR-4) | GI50 (OVCAR-5) | GI50 (SN12C) | GI50 (SNB-75) | GI50 (SW-620) | GI50 (UACC-62)
1 | COc1cccc([C@H]2CC(=O)c3cc4c(cc3N2)OCO4)c1 | 0.75 µM (active) | 0.296 µM (active) | 0.49 µM (active) | 0.434 µM (active) | 0.352 µM (active) | 19.1 µM (inactive) | 0.216 µM (active) | 0.237 µM (active) | 0.0789 µM (active) | 0.263 µM (active) | 0.451 µM (active) | 0.411 µM (active) | 0.598 µM (active) | 20.6 µM (inactive) | 0.441 µM (active) | 0.394 µM (active) | > 100 µM (inactive) | 0.428 µM (active) | 0.406 µM (active)
2 | C=CC[C@@]1(C)CCCCCCCCC[C@@](C)(CC=C)C1=O | 17.1 µM (inactive) | 40 µM (inactive) | 20.2 µM (inactive) | 17.4 µM (inactive) | 32.9 µM (inactive) | 46.8 µM (inactive) | 18.9 µM (inactive) | 28.6 µM (inactive) | 50.8 µM (inactive) | 23.8 µM (inactive) | 25.5 µM (inactive) | 24.4 µM (inactive) | 19 µM (inactive) | > 100 µM (inactive) | > 100 µM (inactive) | 29.2 µM (inactive) | 31.5 µM (inactive) | 24.6 µM (inactive) | 27.9 µM (inactive)
3 | CCOC(=O)c1cc2cc([N+](=O)[O-])ccc2oc1=O | > 100 µM (inactive) | > 100 µM (inactive) | > 100 µM (inactive) | 58.6 µM (inactive) | 93.3 µM (inactive) | > 100 µM (inactive) | > 100 µM (inactive) | > 100 µM (inactive) | > 100 µM (inactive) | > 100 µM (inactive) | > 100 µM (inactive) | 69.5 µM (inactive) | > 100 µM (inactive) | > 100 µM (inactive) | > 100 µM (inactive) | > 100 µM (inactive) | > 100 µM (inactive) | > 100 µM (inactive) | 24.3 µM (inactive)
4 | CC(C)Cn1cnc2c(Cl)nc3ccccc3c21 | 33.9 µM (inactive) | 59.4 µM (inactive) | 53.2 µM (inactive) | 73.3 µM (inactive) | 34.4 µM (inactive) | 21.8 µM (inactive) | 27.7 µM (inactive) | > 100 µM (inactive) | 68.2 µM (inactive) | 40 µM (inactive) | 59.3 µM (inactive) | 54.2 µM (inactive) | 41.3 µM (inactive) | 48.3 µM (inactive) | 54.7 µM (inactive) | 70.6 µM (inactive) | 18.7 µM (inactive) | 47.3 µM (inactive) | 40.9 µM (inactive)
5 | Nc1ncnc2c1ncc(=O)n2C1CC(O)C(CO)O1 (stereo not given) | > 100 µM (inactive) | > 100 µM (inactive) | > 100 µM (inactive) | > 100 µM (inactive) | > 100 µM (inactive) | > 100 µM (inactive) | > 100 µM (inactive) | > 100 µM (inactive) | > 100 µM (inactive) | > 100 µM (inactive) | > 100 µM (inactive) | > 100 µM (inactive) | > 100 µM (inactive) | > 100 µM (inactive) | > 100 µM (inactive) | > 100 µM (inactive) | > 100 µM (inactive) | > 100 µM (inactive) | > 100 µM (inactive)
6 | Cc1c(C#N)c2nnn(-c3cccc(Cl)c3)c(=O)n2c1-c1ccccc1 | 2.36 µM (inactive) | 4.5 µM (inactive) | 3.66 µM (inactive) | 3.48 µM (inactive) | 2.03 µM (inactive) | 26 µM (inactive) | 6.64 µM (inactive) | 4.17 µM (inactive) | 0.428 µM (active) | 2.25 µM (inactive) | 8.77 µM (inactive) | 3.15 µM (inactive) | 1.65 µM (inactive) | 8.61 µM (inactive) | 3.75 µM (inactive) | 3.83 µM (inactive) | 1.76 µM (inactive) | 4.3 µM (inactive) | 4.43 µM (inactive)
7 | ClC(Cl)(Cl)C1=N[C@H]2[C@H](Br)[C@@H]3O[C@@H](c4ccccc4)[C@H](c4ccccc4)O[C@@H]3[C@H]2O1 | 17.2 µM (inactive) | 21.5 µM (inactive) | 17.7 µM (inactive) | 15.2 µM (inactive) | 18.7 µM (inactive) | 16.5 µM (inactive) | 23.8 µM (inactive) | 23.8 µM (inactive) | 20.3 µM (inactive) | 19.8 µM (inactive) | 21 µM (inactive) | 16 µM (inactive) | 16.6 µM (inactive) | 18.7 µM (inactive) | 18.9 µM (inactive) | 20.1 µM (inactive) | 20.9 µM (inactive) | 19.6 µM (inactive) | 16.3 µM (inactive)
8 | CCOc1cc2c(cc1O)C(=O)C[C@@H]1[C@@H]2CC[C@]2(C)[C@@H](O)CC[C@@H]12 | 0.269 µM (active) | 0.877 µM (active) | 0.162 µM (active) | 1.36 µM (inactive) | 0.144 µM (active) | 9.06 µM (inactive) | 0.163 µM (active) | 0.385 µM (active) | 0.0212 µM (active) | 0.561 µM (active) | 0.33 µM (active) | 0.0982 µM (active) | 0.092 µM (active) | 35.1 µM (inactive) | 20.6 µM (inactive) | 0.353 µM (active) | 0.106 µM (active) | 0.126 µM (active) | 0.0682 µM (active)
9 | C=C(C)[C@@H]1CC[C@]2(C(=O)OC3OC(COC4OC(CO)C(OC5OC(C)C(O)C(O)C5O)C(O)C4O)C(O)C(O)C3O)CC[C@]3(C)[C@H](CC[C@@H]4[C@@]5(C)CC[C@H](O)[C@@](C)(CO)[C@@H]5CC[C@]43C)[C@@H]12 (stereo not given in full) | 2.48 µM (inactive) | 0.986 µM (active) | 0.043 µM (active) | 2.56 µM (inactive) | 2.18 µM (inactive) | 3.1 µM (inactive) | 3.64 µM (inactive) | 3.48 µM (inactive) | 4.58 µM (inactive) | 3.16 µM (inactive) | 1.04 µM (active) | 1.37 µM (inactive) | 1.84 µM (inactive) | 3.44 µM (inactive) | 6.81 µM (inactive) | 3.5 µM (inactive) | 4.39 µM (inactive) | 2.16 µM (inactive) | 1.99 µM (inactive)
10 | N#CSc1ccc(S(N)(=O)=O)cc1 | > 100 µM (inactive) | > 100 µM (inactive) | 8.07 µM (inactive) | > 100 µM (inactive) | 44.5 µM (inactive) | > 100 µM (inactive) | > 100 µM (inactive) | 21.6 µM (inactive) | 33.2 µM (inactive) | > 100 µM (inactive) | > 100 µM (inactive) | > 100 µM (inactive) | 52.2 µM (inactive) | 30.3 µM (inactive) | 59.8 µM (inactive) | > 100 µM (inactive) | > 100 µM (inactive) | 23.9 µM (inactive) | 70 µM (inactive)
